Consider one compound from ChEMBL document CHEMBL1156506, “Changes to the HIV long terminal repeat and to HIV integrase differentially impact HIV integrase assembly, activity, and the binding of strand transfer inhibitors” (J Biol Chem, 2007).

Settings in all cases: tested as the 3H-labelled form
Assay [1] deals with Human immunodeficiency virus type 1 integrase (Human immunodeficiency virus 1), Q7ZJM1 [Q148R]. The experiment in a line: Binding affinity to HIV recombinant integrase Q148R mutant using U5 GTCA LTR relative to wild type LTR.
Assay [2] has as its system Human immunodeficiency virus type 1 integrase (Human immunodeficiency virus 1), Q7ZJM1 [N155H]. The experiment in a line: Inhibition of HIV recombinant integrase N155H mutant assessed as strand transfer activity using U5 ApTCA LTR by scintillation proximity assay relative to wild type LTR. The arrangement: scale not given: the % may be the effect or the level left. (Scintillation proximity formats need no separation of bound from free tracer.)

Assay [3] concerns Human immunodeficiency virus. The experiment in a line: Inhibition of HIV wild type integrase assessed as strand transfer activity using U5 GTGA LTR by scintillation proximity assay relative to wild type LTR. The arrangement: scale not given: the % may be the effect or the level left.

For the compound `Cn1c(N2CCCCS2(=O)=O)nc(C(=O)NCc2ccc(F)cc2)c(O)c1=O` [BMS-707035], the Activity in assay [1] stood at 3%; in assay [2], 2%; in assay [3] it was 90%.
